Laboratory results taken from patent US8841277B2, “Methods for treating non-small cell lung cancer using 5-azacytidine” (Celgene Corporation, priority 2009, dated 2014).
“Also recorded” adds a separate entry of the source. Like-named read-outs stand apart in the source and are kept apart here.

Experiments:
H460 cells = test: Cell viability (CyQuant assay), H460; assay type: cell-based; conditions: for HillSlope / LogIC50 / IC50: H460 viability, best-fit value
Experimental: (§1) Certain NSCLC cell lines (H460, H1299, A549, and H1975) were purchased from American Type Culture Collection (ATCC; Manassas, Va.). The H23NSCLC cell line was obtained from the National Cancer Institute (NCI; Bethesda, Md.). Cell lines were cultured in their respective media, as recommended by ATCC and NCI. AZA was manufactured at Aptuit (Greenwich, Conn.) for Celgene (Summit, N.J.), while DAC was purchased from Sigma-Aldrich (St. Louis, Mo.). In all experiments, cells were seeded 24 hours before drug treatment and incubated at 37° C./5% CO2, For cell viability assays, H460, H1299, A549, H23, and H1975 cells were seeded in triplicate at 1×10^3, 1×10^3, 1×10^3, 4×10^3, and 4×10^3 cells per well, respectively, in 96-well plates, using 200 μL of medium per well. Fresh drug was added every 24 hours by replacing medium with drug-containing medium. For all other assays, cells were seeded at 0.6-1.2×10^5 cells per well, in 6-well plates, using 4 mL of medium per well, with fresh drug added directly to the medium every 24 hours.
(§2) Cell viability was assessed using the CyQuant assay (Life Technologies Corporation; Carlsbad, Calif.). Fluorescence was measured with a spectrophotometer (Molecular Devices; Sunnyvale, Calif.), and EC50 values were calculated in Prism® version 5.01 (GraphPad Software, Inc.; La Jolla, Calif.), using results from three independent experiments.
The six data sets represent calculations of EC50 values from raw data using Prism®. The standard deviation among the three independent experiments was determined at each drug concentration. For some of the cell lines, Prism® was not able to calculate the EC50 for DAC. For those curves that an EC50 was available, the SE (Std. Error) was acceptable (SE of the logEC50 should be less than 0.5), meaning that the standard errors were not too large. The 95% Confidence Intervals for the EC50 were considered as a measure of error.

NSCLC cell lines = test: Cell viability dose-response profiles, all cell lines; assay type: cell-based; conditions: 72 hours; dose range
Experimental: as §1, with “For all other assays, cells were seeded at 0.6-1.2×10^5 cells per well, in 6-well plates, using 4 mL of medium per well, with fresh drug added directly to the medium every 24 hours.” left out
as §2
The six data sets represent calculations of EC50 values from raw data using Prism®. The standard deviation among the three independent experiments was determined at each drug concentration. […]

A549 cells = test: Cell cycle distribution (NIM-DAPI), A549; assay type: cell-based
From the text: (§3) These studies examined the cell cycle distribution of NSCLC cells treated with AZA or DAC using NIM-DAPI analysis.
(§4) For cell cycle distribution, cells were stained with the NIM-DAPI reagent (Beckman Coulter, Inc.; Fullerton, Calif.). For measurement of early- and late-apoptotic cell populations, cells were stained with AnnexinV-FITC and 7-AAD reagents (Beckman Coulter, Inc.). Samples were processed according to manufacturer's instructions and analyzed on a Cell Lab Quanta MPL flow cytometer (Beckman Coulter, Inc.). […] Data were also collected for untreated cells as control.

H1299 cells = test: Cell cycle distribution (NIM-DAPI), H1299; assay type: cell-based
From the text: as §3, §4

NSCLC cell types = test: Apoptosis (AnnexinV-FITC/7-AAD), summary; assay type: cell-based; conditions: summary of studies
From the text: as §4

[1] = tested on: LINE-1 elements in A549 cells; test: LINE-1 Methylation Assay, A549; assay type: cell-based; conditions: for DNA hypomethylation (LINE-1 methylation): 48 hours or 72 hours
Experimental: (§5) Genomic DNA was purified from cells using the DNeasy Blood and Tissue Kit (Qiagen; Valencia, Calif.), according to the manufacturer's instructions. DNA yield was quantitated with a NanoDrop 8000 spectrophotometer (Thermo Fisher Scientific, Inc.). DNAs (1 μg/sample) were submitted to EpigenDx (Worcester, Mass.) for bisulfate conversion and pyrosequencing of LINE-1 elements. Briefly, 1 μg of DNA was bisulfite-treated using the Zymo DNA Methylation Kit (Zymo Research; Orange, Calif.) and eluted in 10 μL volume. DNA eluate (1 μL) was used for PCR with biotinylated primers to the LINE-1 locus, converting the PCR product to single-stranded DNA templates. PCR products (each 10 μL) were sequenced by Pyrosequencing PSQ96 HS System (Biotage AB), following the manufacturer's instructions (Biotage; Kungsgatan, Sweden). The methylation status of each locus was analyzed individually as a T/C SNP using QCpG software (Biotage). Percent LINE-1 methylation represents the average percent methylation of four CpG sites in duplicate samples.
(§6) At the highest drug concentration tested (3 μM), LINE-1 methylation was less affected, possibly due to reduced drug incorporation as a result of inhibited cell proliferation.

[2] = tested on: LINE-1 elements in H1299 cells; test: LINE-1 Methylation Assay, H1299; assay type: cell-based; conditions: for DNA hypomethylation (LINE-1 methylation): 48 hours or 72 hours
Experimental: as §5, §6

DNMT1 [3] = test: DNMT1 protein depletion, H460; assay type: cell-based; conditions: for DNMT1 protein levels: dose range
Experimental: (§7) For western analyses of protein levels, cells were washed with PBS and lysed with RIPA buffer (Cell Signaling Technology, Inc.; Danvers, Mass.) containing 350 mM NaCl and 0.1% SDS. Cell lysates were sonicated with two 5-second bursts under low amplitude (20%) using the Digital Sonic Dismembrator (Thermo Fisher Scientific, Inc.; Waltham, Mass.). Proteins were separated on 4-12% Bis-Tris NuPAGE gels (Life Technologies Corporation) and transferred to nitrocellulose membranes. DNMT1, phos-Histone-H2AX(Ser139), total Histone-H2AX, cleaved-PARP, p21, p53, and alpha-tubulin were detected using the Li-Cor Odyssey imaging system (Li-Cor Biotechnology; Lincoln, Nebr.), following incubation with the appropriate primary and secondary antibodies. The phos-Histone-H2AX(Ser139), cleaved-PARP, and p21 antibodies were from Cell Signaling Technology, Inc. The p53 and total Histone-H2AX (C-20) antibodies were from Santa Cruz Biotechnology, Inc. (Santa Cruz, Calif.). The alpha-tubulin and DNMT1 antibodies were purchased from EMD Chemicals, Inc. (Gibbstown, N.J.) and Abcam, Inc. (Cambridge, Mass.), respectively. The goat anti-Rabbit IRDye 680, goat anti-Mouse IRDye 800CW, and donkey anti-Goat IRDye 800CW secondary antibodies were from Li-Cor Biotechnology.
(§8) Reduced DNMT1 levels were detected in these cell lines as early as 4 hours after drug treatment (FIG. 17).

DNMT1 [4] = test: DNMT1 protein depletion, H1299; assay type: cell-based; conditions: for DNMT1 protein levels: dose range
Experimental: as §7, §8

DNMT1 [5] = test: DNMT1 protein depletion, H23; assay type: cell-based; conditions: H23 cell line
Experimental: as §8

[6] = administered at 15 mg/m^2; cited from earlier work
[7] = Homo sapiens, NCI-H460, 72 hours

IC50 (H460 cells; [7]) | Structure (SMILES) | HillSlope (H460 cells; 72 hours) | LogIC50 (H460 cells; 72 hours) | Viability profile at high doses (NSCLC cell lines) | Cell cycle distribution (NIM DAPI) (A549 cells; 48-hour treatment, 0.3-10 μM) | Cell cycle distribution (NIM DAPI) (A549 cells; 72-hour treatment, 0.3-10 μM) | Cell cycle distribution (NIM DAPI) (A549 cells; summary of studies) | Cell cycle distribution (NIM DAPI) (H1299 cells; 72-hour treatment, 0.3-10 μM) | Cell cycle distribution (NIM DAPI) (H1299 cells; summary of studies) | Early- and late-apoptotic cell populations (AnnexinV/7-AAD) (NSCLC cell types) | Concentration of peak hypomethylation (LINE-1) ([1]; 48 or 72 hours) | DNA hypomethylation (LINE-1 methylation) [1] | Concentration of peak hypomethylation (LINE-1) ([2]; 48 or 72 hours) | DNA hypomethylation (LINE-1 methylation) [2] | DNMT1 protein levels (DNMT1 [3]; 20 hours) | DNMT1 protein levels (DNMT1 [4]; 20 hours) | DNMT1 depletion (DNMT1 [5]) | other results
1740 nM | Nc1ncn([C@@H]2O[C@H](CO)[C@@H](O)[C@H]2O)c(=O)n1 [AZA, 4-amino-1-β-D-ribofuranosyl-1,3,5-triazin-2(1H)-one] | −0.8940 | 0.2413 | cytotoxic activities at high doses | induced accumulation of cells in G2/M and Sub-G1 | induced accumulation of cells in G2/M and Sub-G1 | induced accumulation of cells in G2/M and Sub-G1 | induced accumulation of cells in G2/M and Sub-G1 | induced accumulation of cells in Sub-G1 | dramatic increase in early-apoptotic (AnnexinV+ 7-AAD−) and late-apoptotic (AnnexinV+ 7-AAD+) cells | 0.3-1 μM | induced DNA hypomethylation; also recorded: caused a decrease in LINE-1 methylation | 0.3-1 μM | induced DNA hypomethylation; also recorded: caused a decrease in LINE-1 methylation | significantly reduced | significantly reduced | time- and dose-dependent depletion | EC50 (H460 cells; H460, 72 hours, read-out: EC50 of effect on viability): 1700 nM; EC50 (H460 cells; Homo sapiens, NCI-H460, 72 h, H460, read-out: EC50 of effect on viability): 1240 nM
113000 nM | Nc1ncn([C@H]2C[C@H](O)[C@@H](CO)O2)c(=O)n1 [DAC, 5-aza-2′-deoxycytidine] | −0.3814 | 2.053 | cytostatic activity at high doses | induced an increase of cells in G2/M | induced an increase of cells in G2/M | induced an increase of cells in G2/M | induced accumulation of cells in G2/M and Sub-G1; also recorded: induced accumulation of cells in Sub-G1 while DAC also caused an increase of cells in G2/M | induced accumulation of cells in Sub-G1 while DAC also caused an increase of cells in G2/M | very slight increase in these cell populations | 0.1 μM | induced DNA hypomethylation; also recorded: caused a decrease in LINE-1 methylation | 0.1 μM | induced DNA hypomethylation; also recorded: caused a decrease in LINE-1 methylation | significantly reduced | significantly reduced | time- and dose-dependent depletion | EC50 (H460 cells; Homo sapiens, NCI-H460, H460, 72 hours, read-out: EC50 of effect on viability): > 25000 nM; Cell cycle distribution (NIM DAPI) (H1299 cells; 48-hour treatment, 0.3-10 μM): induced accumulation of cells in G2/M; Potency in decreasing LINE-1 methylation relative to AZA ([1]; 48 or 72 hours): 3- to 10 fold; Potency in decreasing LINE-1 methylation relative to AZA ([2]; 48 or 72 hours): 3- to 10 fold; DNMT1 depletion (DNMT1 [3]; 0.3-10 μM, 24 h and 48 h (Example 5)): able to cause DNMT1 depletion; Relative potency in reducing DNMT1 levels (DNMT1 [3]; 20 hours): equipotent; DNMT1 depletion (DNMT1 [4]; 0.3-10 μM, 48 h (Example 5)): able to cause DNMT1 depletion; Relative potency in reducing DNMT1 levels (DNMT1 [4]; 20 hours): more potent than AZA; Plasma levels [6]: 500 nM
